Measured values from US20220233708A1, “ANTIBODY-DRUG CONJUGATE, INTERMEDIATE THEREOF, PREPARATION METHOD THEREFOR AND APPLICATION THEREOF” (priority 2019, published 2022).
Like-named read-outs stand apart in the source and are kept apart here. Starred links: 1 amine or outer side, 2 acyl side, 3 side chain; linkers in the order of their positions; H or OH if unused. Non-standard residues stand in square brackets, D forms with d. Residues, ends and D or L forms follow the SMILES beside them. *: point of attachment. Exatecan = CC[C@@]1(O)C(=O)OCc2c1cc1n(c2=O)Cc2c-1nc1cc(F)c(C)c3c1c2[C@@H](N*)CC3; Hexanoyl(6-maleimido) = O=C1C=CC(=O)N1CCCCCC(=O)*; NHCH2OCH2CO = O=C(COCN[*:1])[*:2]

Columns and labels:
anti-B7-H3 antibody P2E5 = experiment: Coupling of linker-drug conjugates with P2E5; format: physicochemical; settings: coupling with P2E5, highest DAR (excessive coupling)
Method: (§1) The anti-B7-H3 antibody P2E5, anti-Claudin18.2 antibody IMAB362, and anti-HER2 antibody Trastuzumab (concentration was 15 mg/mL) were replaced into 50 mM PB/1.0 mM EDTA buffer (pH 7.0) by a G25 desalting column, respectively. 12 equivalents of TECP was added and the mixture was stirred at 37° C. for 2 hours to fully open the disulfide bonds between the antibody chains. Then phosphoric acid was used to adjust the pH of the reduced antibody solution to 6.0, and the temperature of the water bath was lowered to 25° C. for coupling reaction. […] After the reaction was completed, the sample was filtered with a 0.22 μm membrane. Uncoupled small molecules were purified and removed by a tangential flow ultrafiltration system. The buffer was 50 mM PB/1.0 mM EDTA solution (pH 6.0). After purification, sucrose (final concentration was 6%) was added, and the mixture was stored in a refrigerator at −20° C. The UV method was used to measure the absorbance values at 280 nm and 370 nm respectively, and the DAR value was calculated.

[1] = system: anti-Claudin18.2 antibody IMAB362; experiment: Coupling of linker-drug conjugates with IMAB362; format: physicochemical; settings: coupling with IMAB362, highest DAR (excessive coupling)
Method: as §1

[2] = system: anti-HER2 antibody Trastuzumab; experiment: Coupling of linker-drug conjugates with Trastuzumab; format: physicochemical; settings: highest DAR (excessive coupling)
Method: as §1

other antibodies = experiment: Coupling of linker-drug conjugates with other / different antibodies; format: physicochemical; settings: coupled with other / different antibodies
cathepsin B = cathepsin B (Homo sapiens, UniProt P07858); experiment: In vitro enzyme cleavage experiment of linker-drug conjugates; format: in vitro ADME; settings: pH 5.0 to pH 7.0
Method: Linker-drug conjugates (LE14 and GGFG-Dxd) and cathepsin B were incubated in three different pH (5.0, 6.0, 7.0) buffers, and samples were taken at different time points into the high performance liquid chromatography-mass spectrometer. The release percentage of the drug was determined by external standard method (with Dxd as the external standard).

NCI-N87 cell line = experiment: Killing activity on NCI-N87 before and after enzyme cleavage by cathepsin B system; format: cell-based, human; settings: NCI-N87, 144 hours
From the text: The NCI-N87 cell line was selected as the experimental cell line.

Structure (SMILES)	Ratio of aggregates (anti-B7-H3 antibody P2E5) [%]	Whether precipitation (anti-B7-H3 antibody P2E5)	Ratio of aggregates [1] [%]	Whether precipitation [1]	Ratio of aggregates [2] [%]	Whether precipitation [2]	Precipitation (in words) (other antibodies)	Ratio of aggregates (in words) (other antibodies)	Enzyme cleavage speed (in words) (cathepsin B)	IC50 (NCI-N87 cell line; after cathepsin B system pH 5.0, 37° C., 4 hours, read-out: IC50 (Based on SN-38 equivalent), After enzyme cleavage) [nM]	IC50 (NCI-N87 cell line; before cathepsin B cleavage, read-out: IC50 (Based on SN-38 equivalent), Before enzyme cleavage) [nM]
CC[C@@]1(O)C(=O)OCc2c1cc1n(c2=O)Cc2c-1nc1cc(F)c(C)c3c1c2[C@@H](NC(=O)COCNC(=O)CNC(=O)[C@H](Cc1ccccc1)NC(=O)CNC(=O)CNC(=O)CCCCCN1C(=O)C=CC1=O)CC3 [GGFG-Dxd, reference compound] ({Hexanoyl(6-maleimido)}-GGFG[NHCH2OCH2CO]-Exatecan)	20	produced precipitation	35	produced precipitation	0.1	did not produce precipitation and No	precipitation would be produced	high	slower enzyme cleavage speed		
CCc1c2c(nc3ccc(O)cc13)-c1cc3c(c(=O)n1C2)COC(=O)[C@]3(O)CC [SN38, 7-ethyl-10-hydroxycamptothecin]										6.85	6.47
